Measurements: patent US20210032374A1, “ISOLATED SAPOSHNIKOVIA DIVARICATA POLYSACCHARIDE AND USE THEREOF” (SHANGHAI GREEN VALLEY PHARMACEUTICAL CO., LTD., priority 2018, published 2021)

What was measured:
Type in all cases: in vivo, Kunming mice
[1] = tested on: mice with diabetes mellitus induced by streptozotocin (STZ); assay: Glucose tolerance (i.p. glucose load) in mice with STZ-induced diabetes mellitus; details: 25 mg/kg, x ± S.D, n = 10
Protocol: Experimental method: The mice were kept at a temperature of 20±2° C. and a humidity of 50±5% under 12 hours of light and 12 hours of darkness for 3 days, during which the mice were allowed to access to food and water ad arbitrium. 10 healthy mice were selected as the normal control group (Control). The remaining mice were intraperitoneally injected with a streptozotocin (STZ) solution at 0.2 ml/10 g body weight. 72 h later, the fast blood glucose (FBG) of the mice was measured. The mice having an FBG value higher than 11.1 mmol/L and lower than 25 mmol/L were selected as diabetes mellitus model mice. The diabetes mellitus model mice were randomly grouped into a model group (STZ 120 mg/kg), a low-dose Saposhnikovia divaricata polysaccharide group (SDP 50 mg/kg), a high-dose Saposhnikovia divaricata polysaccharide (SDP 200 mg/kg) group, and a positive drug (Glibenclamide, GLI 25 mg/kg) control group, 10 mice per group. For each dosing group, the mice were dosed by oral gavage at 0.2 ml/10 g body weight at 8:00 am every day. The normal control group and the model group were given an equal volume of distilled water. During the experiment, the mice in each group were allowed to access to water ad arbitrium. The FBG and body weight were measured every 10 days. 30 days after the dosing, the mice were treated, and the following indexes were measured.
(1) Glucose tolerance: The mice were fasted at 8:00 the day before the end of the experiment. After 4 h, blood was collected from the orbit, and FBG was measured as the blood glucose level before administration of glucose (0 h). Then, all mice were intraperitoneally injected with a 10% glucose solution at 0.2 ml/10 g body weight. 0.5 hour (0.5 h) and 2 hours (2 h) after intraperitoneal injection of glucose, blood was collected from the orbit, and the blood glucose value was measured. The area under the blood glucose curve (AUC) was calculated according to the following equation: […]

[2] = tested on: mice with diabetes mellitus induced by streptozotocin (STZ); assay: Fast blood glucose (FBG) in mice with STZ-induced diabetes mellitus; details: 25 mg/kg oral gavage daily, STZ diabetic mice, x ± S.D, n = 10
Protocol: Experimental animals: healthy male Kunming mice of clean grade (weighed 18-22 g, provided by Shanghai SLAC Laboratory Animal Co., Ltd.). Experimental method: […] The diabetes mellitus model mice were randomly grouped into a model group (STZ 120 mg/kg), a low-dose Saposhnikovia divaricata polysaccharide group (SDP 50 mg/kg), a high-dose Saposhnikovia divaricata polysaccharide (SDP 200 mg/kg) group, and a positive drug (Glibenclamide, GLI 25 mg/kg) control group, 10 mice per group. For each dosing group, the mice were dosed by oral gavage at 0.2 ml/10 g body weight at 8:00 am every day. The normal control group and the model group were given an equal volume of distilled water. During the experiment, the mice in each group were allowed to access to water ad arbitrium. The FBG and body weight were measured every 10 days. 30 days after the dosing, the mice were treated, and the following indexes were measured.

[3] = tested on: mice with hyperlipoidemia; assay: Liver TC and TG contents and liver weight coefficient in mice with hyperlipoidemia; details: positive drug 40 mg/kg
Text: A hyperlipoidemia model was established with reference to the methods as described in the references (Liyan Sun, Zhenliang Liu, Jinxia Sun, et al., Effect of Imperata cylindrica polysaccharide on hypoxia tolerance in mice, China Journal of Hospital Pharmacy, 2008, 28(2): 96-99; Bin Leng, Intervention of immunoregulation and renal fibrosis by Imperata cylindrica polysaccharide in rats with IgA nephropathy, Dissertations of Guilin Medical University, 2013; Shijing Lv, Qicai Long, Deyuan He, et al., Regulation of lymphocyte proliferation and T cell subpopulation by Imperata cylindrica polysaccharide in patients with hepatitis B, [Conference Paper] 2001—The Second National Academic Conference on Immunology of Traditional Chinese Medicine). Experimental method: The mice were kept at a temperature of 20±2° C. and a humidity of 50±5% under 12 hours of light and 12 hours of darkness for 3 days, during which the mice were allowed to access to food and water ad arbitrium. […] The serum TC, TG, LDL-C and HDL-C levels were measured. A part of the liver tissue of the mice was took, homogenized, and measured for liver TC and TG contents, as well as SOD and GSH-px activities and MDA content. […]

| Structure (SMILES) | Blood glucose ([1]; 0 h (before glucose), after 30 days dosing) | Blood glucose ([1]; 0.5 h after i.p. glucose) | Blood glucose ([1]; 2 h after i.p. glucose) | Area under the curve (AUC) ([1]; blood glucose curve 0-2 h) | FBG ([2]; Day 0) | FBG ([2]; Day 10) | FBG ([2]; Day 20) | FBG ([2]; Day 30) | liver weight coefficient [3] | liver TC content ([3]; vs high-fat model group, P<0.01) |
| --- | --- | --- | --- | --- | --- | --- | --- | --- | --- | --- |
| COc1ccc(Cl)cc1C(=O)NCCc1ccc(S(=O)(=O)NC(=O)NC2CCCCC2)cc1 [GLI, glibenclamide] | 20.44 ± 2.25 mmol/1 | 29.63 ± 2.24 mmol/1 | 27.60 ± 2.04 mmol/1 | 40.62 ± 2.86 | 12.58 ± 2.69 mmol/L | 15.95 ± 1.57 mmol/L | 18.56 ± 3.02 mmol/L | 20.44 ± 2.25 mmol/L | – | – |
| CC(C)OC(=O)C(C)(C)Oc1ccc(C(=O)c2ccc(Cl)cc2)cc1 [Lipanthyl, Fenofibrate] | – | – | – | – | – | – | – | – | significantly increased | significantly lower |
